Patent publication US7608242B2, “Peptide-chelate conjugates” (GE Healthcare Limited, priority 2001, dated 2009)
Ends that are not written are not given here. Peptide text beside a SMILES is read from it. * marks the point of attachment. X1 = CCOC(C)SCC(=O)NC(CCCC(=O)*)C(=O)NCC(=O)NCC(=O)O

Assays:
[1] = target: T1, ST receptor (rat intestinal membrane) (Rattus norvegicus, UniProt P23897); experiment: Radioactive binding assay of HPLC purified radiolabelled compounds; conditions: ca. 0.05 nM radiolabelled compound, 6 μg rat intestinal membrane, one hour
T1 construct: in 96 well plates containing ca. 1 μg rat intestinal membrane; from tissue; host or cells: rat intestinal membrane
T1 sequence (P23897 23-1072): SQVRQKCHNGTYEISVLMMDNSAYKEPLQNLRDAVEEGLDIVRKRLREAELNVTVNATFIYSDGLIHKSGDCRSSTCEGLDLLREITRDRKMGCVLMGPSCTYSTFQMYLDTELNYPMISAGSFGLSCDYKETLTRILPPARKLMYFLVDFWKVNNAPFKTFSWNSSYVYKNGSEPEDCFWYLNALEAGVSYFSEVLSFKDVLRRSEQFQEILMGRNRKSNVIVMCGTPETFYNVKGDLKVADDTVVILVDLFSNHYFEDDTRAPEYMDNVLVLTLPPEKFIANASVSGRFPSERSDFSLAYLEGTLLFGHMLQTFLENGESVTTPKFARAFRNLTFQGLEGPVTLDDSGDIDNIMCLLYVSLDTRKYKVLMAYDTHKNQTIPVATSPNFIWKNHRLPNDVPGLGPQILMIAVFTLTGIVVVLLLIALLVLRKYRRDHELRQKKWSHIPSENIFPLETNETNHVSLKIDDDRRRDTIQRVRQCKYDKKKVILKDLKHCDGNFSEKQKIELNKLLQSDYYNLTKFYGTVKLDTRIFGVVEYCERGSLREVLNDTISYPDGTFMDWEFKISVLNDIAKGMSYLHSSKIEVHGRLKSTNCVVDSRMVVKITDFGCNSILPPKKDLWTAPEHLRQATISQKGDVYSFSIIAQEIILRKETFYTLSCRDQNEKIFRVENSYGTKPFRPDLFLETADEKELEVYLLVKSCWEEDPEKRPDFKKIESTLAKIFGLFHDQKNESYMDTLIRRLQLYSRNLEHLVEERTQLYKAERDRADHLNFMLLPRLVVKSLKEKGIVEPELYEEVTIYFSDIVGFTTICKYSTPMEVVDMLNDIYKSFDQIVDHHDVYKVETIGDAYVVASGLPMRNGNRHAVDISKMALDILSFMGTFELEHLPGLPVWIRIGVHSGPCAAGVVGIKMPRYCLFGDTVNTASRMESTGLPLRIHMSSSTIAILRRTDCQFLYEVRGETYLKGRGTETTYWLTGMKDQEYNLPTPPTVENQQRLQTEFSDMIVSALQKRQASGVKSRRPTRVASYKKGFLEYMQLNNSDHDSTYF
Protocol: To determine whether radiolabelling affected the binding of the compound, labelled compounds were tested for their ability to bind the receptor. Briefly HPLC purified radiolabelled compounds (ca. 0.05 nM) were incubated with 6 μg/150 μl final volume of rat intestinal membrane (one hour), in the presence and absence of competing peptide (50 μM ST5-18). Samples were filtered (GF/B filters, Whatman) to retrieve bound radiolabelled peptide and counted to determine % Bound/Free. Non-specific binding accounted for less than 1% in all cases.
In order to ensure that potency was maintained post-labelling, an assay measuring binding of labelled compounds was developed.

[2] = test system: sub-cutaneous T84 tumours (T84 human colon carcinoma cells); experiment: Biodistribution in a subcutaneous tumour model; format: in vivo, mouse; conditions: 60 min p.i.
Protocol: The sub-cutaneous model was used as an appropriate initial in vivo screen. Briefly, mice (female nude CD-1, ca. 20 g; Charles River) were injected sub-cutaneously into the neck with T84 human colon carcinoma cells (0.1 ml, 1×10^8 cells/ml in medium) through a 23-gauge needle and allowed to develop tumours over 6-8 weeks.
At least three animals per test point were studied. Results are expressed as % injected dose per gram (% ID/g) of tissue.
Compounds were screened for their uptake into sub-cutaneous T84 tumours in the mouse (Table IV). This model allows assessment of the imageability of CA1-ST5-18 by allowing comparison between tumour and background tissue uptake.

[3] = test system: T84 tumours subcutaneously; experiment: Imaging in the subcutaneous tumour model (planar gamma camera); format: in vivo, mouse; conditions: HPLC purified, 20 MBq per animal
Protocol: Tumour to liver ratios were; 1.1 at 15 minutes, 2 at 60 minutes and 4 at 120 minutes.
Tumours were grown as in Example 17. Animals were monitored for tumour growth for 8 to 10 weeks, until tumours were 0.5-1 cm in size. After this time, animals were injected with test article (0.1 ml, 20 MBq/ml or 200 MBq/ml) as an intravenous bolus via the tail vein. At various times p.i. animals were euthanased and whole body planar images acquired between 5 minutes and 24 hours p.i. using a gamma camera (Park Medical Isocam-1). Image acquisition times were typically 15-30 min or 150-250K counts (whole body, LEUHR collimator).

T84 liver tumours = experiment: Imaging in liver metastases model; format: in vivo, rat; conditions: image of Example 21 (FIG. 8)
Protocol: The image is a whole body image with background counts removed and kidneys masked. Image tumour:liver ratio was typically 2.5.
The liver metastases model was used in both mice and rats. As for the subcutaneous tumour model except in establishing tumours, cells were injected via the spleen and allowed to transfer to the liver via the circulation. Two minutes after injection of cells, a splenectomy was performed. Animals were allowed to generate tumours over 6-8 weeks.
Tumours were grown in animal as described in Example 20. Animals were monitored for tumour growth for 8 to 10 weeks, until tumours were 0.5-1 cm in size. After this time, animals were injected with test article (0.1 ml, 200 MBq/ml) as an intravenous bolus via the tail vein. At various times p.i. animals were euthanased and whole body planar images acquired between 5 minutes and 24 hours p.i. using a gamma camera (Park Medical Isocam-1). Image acquisition times were typically 15-30 min or 150-250K counts (whole body, LEUHR collimator). […] The image has the kidneys masked to improve the resolution of the imaged metastases.

[4] = test system: sub-cutaneous T84 tumours; experiment: Uptake of labelled conjugate and negative control into CRC tumours; format: in vivo, mouse; conditions: CD-1 nude mice bearing s.c. T84 tumours
[5] = target: T1, ST receptor (rat intestinal membrane); experiment: Competition binding assay against [125I]ST1-17
Protocol: Compounds were assessed for their potency by radioligand binding assay to determine inhibition constant (Ki) as a measure of potency of binding. Methods are described elsewhere, but briefly, [^125I]ST1-17 was competed with cold ST compounds (0.0001-50 μM) in 96 well plates containing ca. 1 μg rat intestinal membrane and incubated 1 hr, 37° C. Samples were filtered (GF/B filters, Whatman) to retrieve bound radiolabelled peptide and counted to determine % Bound/Free.
Potency of compounds was determined by inhibition constant (Ki) for their ability to compete with radioligand, [^125I]ST1-17.

[6] = Mean Ki value (nM), competition with [125I]ST1-17, ca. 1 μg rat intestinal membrane, 1 hr, 37° C., means of triplicate wells

99mTc-labelled CA1-ST5-18: CA1-ST5-18 peptide-chelate conjugate radiolabelled with 99mTc (CCELCCNPACAGCY; disulfide (positions not given here); not fully specified (N-terminus); ends not checked; also: 99mTc label chelated by CA1, three disulfides, pairing not given here)
binding, % of added radioactive material [1]: 6%
excreted / cleared via urine [2]: greater than 90%
Tumour to liver ratio (image) ([3]; 15 minutes): 1.1
Tumour to liver ratio (image) ([3]; 60 minutes): 2
Tumour to liver ratio (image) ([3]; 120 minutes): 4
tumour:liver ratio based on ROI analysis (T84 liver tumours): 1.5-3.0
uptake into tumour (FIG. 5) [4]: good uptake

C/C(=N/O)C(C)(C)NCCN(CCNC(=O)CCC(=O)N[C@H]1CSSC[C@@H]2NC(=O)[C@@H]3CSSC[C@@H](C(=O)N[C@@H](Cc4ccc(O)cc4)C(=O)O)NC(=O)CNC(=O)[C@H](C)NC(=O)[C@H](CSSC[C@H](NC1=O)C(=O)N[C@@H](CCC(=O)O)C(=O)N[C@@H](CC(C)C)C(=O)N3)NC(=O)[C@H](C)NC(=O)[C@@H]1CCCN1C(=O)[C@H](CC(N)=O)NC2=O)CCNC(C)(C)/C(C)=N\O [CA1-ST5-18]
Ki [5, 6]: 2.8 nM
Ki ([5]; Mean Ki value (nM), mock-labelled (subjected to the radiolabelling protocol in the absence of radiometal)): 3.5 nM

C/C(=N/O)C(C)(C)NCCN(CCNC(=O)CCC(=O)NCC(=O)NCC(=O)NCC(=O)NC(CCC(=O)O)C(=O)NC(CCC(=O)O)C(=O)NC(CCC(=O)O)C(=O)N[C@H]1CSSC[C@@H]2NC(=O)[C@@H]3CSSC[C@@H](C(=O)N[C@@H](Cc4ccc(O)cc4)C(=O)O)NC(=O)CNC(=O)[C@H](C)NC(=O)[C@H](CSSC[C@H](NC1=O)C(=O)N[C@@H](CCC(=O)O)C(=O)N[C@@H](CC(C)C)C(=O)N3)NC(=O)[C@H](C)NC(=O)[C@@H]1CCCN1C(=O)[C@H](CC(N)=O)NC2=O)CCNC(C)(C)/C(C)=N\O (some centres unmarked) [CA1-gly3-Dglu3-ST5-18]
Ki ([5]; Ki, competition binding): 1 nM

CCOC(C)SCC(=O)NC(CCCC(=O)N[C@@H](C)C(=O)N[C@@H](C)C(=O)N[C@@H](CCC(=O)O)C(=O)N[C@@H](CC(C)C)C(=O)N[C@@H](C)C(=O)N[C@@H](C)C(=O)N[C@@H](CC(N)=O)C(=O)N1CCC[C@H]1C(=O)N[C@@H](C)C(=O)N[C@@H](C)C(=O)N[C@@H](C)C(=O)NCC(=O)N[C@@H](C)C(=O)N[C@@H](Cc1ccc(O)cc1)C(=O)O)C(=O)NCC(=O)NCC(=O)O (some centres unmarked) [CA3-ST5-18(cys-ala), reference compound] (X1-AAELAANPAAAGAY-OH)
Ki value (nM) ([5]; Table IV screening data): none
Ki ([5]; competition binding): no binding
Mean Ki value (nM) ([5]; competition with [125I]ST1-17, ca. 1 μg rat intestinal membrane, 1 hr, 37° C., means of triplicate wells): none

CCOC(C)SCC(=O)NC(CCCC(=O)N[C@H]1CSSC[C@@H]2NC(=O)[C@@H]3CSSC[C@@H](C(=O)N[C@@H](Cc4ccc(O)cc4)C(=O)O)NC(=O)CNC(=O)[C@H](C)NC(=O)[C@H](CSSC[C@H](NC1=O)C(=O)N[C@@H](CCC(=O)O)C(=O)N[C@@H](CC(C)C)C(=O)N3)NC(=O)[C@H](C)NC(=O)[C@@H]1CCCN1C(=O)[C@H](CC(N)=O)NC2=O)C(=O)NCC(=O)NCC(=O)O (some centres unmarked) [CA3-ST5-18]
Ki ([5]; Ki value (nM), Table IV screening data): 0.8 nM
Ki ([5]; Ki, competition binding): 0.8 nM
Ki [5, 6]: 0.8 nM

CC(C)C[C@@H]1NC(=O)[C@H](CCC(=O)O)NC(=O)[C@@H]2CSSC[C@@H]3NC(=O)[C@H](C)NC(=O)[C@@H]4CCCN4C(=O)[C@H](CC(N)=O)NC(=O)[C@H](CSSC[C@H](N)C(=O)N2)NC(=O)[C@H](CSSC[C@@H](C(=O)N[C@@H](Cc2ccc(O)cc2)C(=O)O)NC(=O)CNC(=O)[C@H](C)NC3=O)NC1=O [ST5-18]
Ki ([5]; Ki, competition binding): 0.4 nM
